{
  "source": "patent US20040062739A1",
  "about": "“Use of carbohydrates to improve skin barrier function” (SOCIETE L'OREAL S.A., priority 2000, published 2004)",
  "key": {"[1]": {"test_system": "β-D-glucosidase in the stratum corneum", "experiment": "enzymatic test of stratum corneum glycosidases with PNP chromogenic substrate: β-glucosidase", "assay_type": "biochemical", "details": "for stimulation of β-D-glucosidase activity: different concentrations, FIG. 2", "protocol": "(§1) In order to determine the nature and importance of the barrier effect of a carbohydrate derivative in accordance with the invention, the influence of O-octanoyl-6′-maltose on glycosidase activity was studied using the following enzymatic test: The assay was carried out in a 96 well plate. A mixture comprising the following was produced: 75μl of a 10 mM solution of specific chromogenic substrate coupled to paranitrophenol (PNP); 10 μl of 700 mM citrate buffer/200 mM sodium phosphate, pH 4.5; 55 μl of a 0.5 M solution of O-octanoyl-6′-maltose [α-D-glucopyannosyl-1-4-D-glucopyranose]; 40 μl of a solution of soluble glycosidases from the stratum corneum. This solution was obtained simply by scratching the forearm into a 70 mM sodium citrate buffer, pH 4.5 containing 1% of Tween 20 and eliminating cell debris by sequential filtering through a membrane with a pore size of 0.45 and of 0.22 μm. The measurements were carried out by quantifying the yellow coloration after incubation at 37° C. for a period in the range 1h30 and 48 hours."}, "[2]": {"test_system": "other glycosidases of the stratum corneum", "experiment": "enzymatic test of stratum corneum glycosidases with PNP chromogenic substrate: other glycosidases", "assay_type": "biochemical", "details": "FIG. 1; activity relative to value without compound; pH 4.5, 37° C.", "protocol": "as §1"}, "[3]": {"test_system": "thermostable recombinant glycosidases (Clonezyme)", "experiment": "effect on thermostable recombinant glycosidases sold by Clonezyme", "assay_type": "biochemical", "details": "FIG. 3; increasing concentrations; 7 glycosidases tested", "protocol": "O-octanoyl-6′-maltose was also tested for its effect on glycosidases sold by Clonezyme."}, "GLY-01": {"test_system": "GLY-01", "parameters": "key: −: no activity; ε, +, ++: specific activity; ε, +, ++: specific activity; ε, +, ++: specific activity", "details": "glycosidase sold by Clonezyme; cited from earlier work"}, "GLY-02": {"test_system": "GLY-02", "parameters": "key: −: no activity; ε, +, ++: specific activity; ε, +, ++: specific activity; ε, +, ++: specific activity", "details": "glycosidase sold by Clonezyme; cited from earlier work"}, "GLY-03": {"test_system": "GLY-03", "parameters": "key: −: no activity; ε, +, ++: specific activity; ε, +, ++: specific activity; ε, +, ++: specific activity", "details": "glycosidase sold by Clonezyme; cited from earlier work"}, "GLY-04": {"test_system": "GLY-04", "parameters": "key: −: no activity; ε, +, ++: specific activity; ε, +, ++: specific activity; ε, +, ++: specific activity", "details": "glycosidase sold by Clonezyme; cited from earlier work"}, "GLY-05": {"test_system": "GLY-05", "parameters": "key: −: no activity; ε, +, ++: specific activity; ε, +, ++: specific activity; ε, +, ++: specific activity", "details": "glycosidase sold by Clonezyme; cited from earlier work"}, "GLY-06": {"test_system": "GLY-06", "parameters": "key: −: no activity; ε, +, ++: specific activity; ε, +, ++: specific activity; ε, +, ++: specific activity", "details": "glycosidase sold by Clonezyme; cited from earlier work"}, "GLY-07": {"test_system": "GLY-07", "parameters": "key: −: no activity; ε, +, ++: specific activity; ε, +, ++: specific activity; ε, +, ++: specific activity", "details": "glycosidase sold by Clonezyme; cited from earlier work"}, "GLY-08": {"test_system": "GLY-08", "parameters": "key: −: no activity; ε, +, ++: specific activity; ε, +, ++: specific activity; ε, +, ++: specific activity", "details": "glycosidase sold by Clonezyme; cited from earlier work"}, "GLY-09": {"test_system": "GLY-09", "parameters": "key: −: no activity; ε, +, ++: specific activity; ε, +, ++: specific activity; ε, +, ++: specific activity", "details": "glycosidase sold by Clonezyme; cited from earlier work"}, "GLY-10": {"test_system": "GLY-10", "parameters": "key: −: no activity; ε, +, ++: specific activity; ε, +, ++: specific activity; ε, +, ++: specific activity", "details": "glycosidase sold by Clonezyme; cited from earlier work"}},
  "data": [
    {"smiles": "CCCCCCCC(=O)OCC1OC(O)C(O)C(O)C1O", "note": "[O-octanoyl-6-D-glucose]", "values": [
      {"measurement": "stimulation of β-D-glucosidase activity", "setting": "[1]", "result": "a certain stimulation of activity, albeit small"}
    ]},
    {"smiles": "CCCCCCCC(=O)OC[C@H]1O[C@H](O[C@H]2[C@H](O)[C@@H](O)C(O)O[C@@H]2CO)[C@H](O)[C@@H](O)[C@@H]1O", "note": "(stereo partly drawn) [O-octanoyl-6′-maltose, O-octanoyl-6′-maltose [α-D-glucopyranosyl-1-4-D-glucopyranose]]", "values": [
      {"measurement": "effect on β-glucosidase activity of the stratum corneum", "setting": "[1]; FIG. 1, activity relative to value without compound, pH 4.5, 37° C.", "result": "only β-glucosidase had kinetics influenced"},
      {"measurement": "concentration giving maximum stimulation of β-D-glucosidase activity", "setting": "[1]; increasing product concentrations, about 40 mM (1%)", "result": "about 40 mM"},
      {"measurement": "effect on the other glycosidases of the stratum corneum", "setting": "[2]", "result": "either indifferent to the presence of O-octanoyl-6′-maltose or very slightly inhibited"},
      {"measurement": "effect on recombinant glycosidases, first group of enzymes", "setting": "[3]", "result": "insensitive"},
      {"measurement": "effect on recombinant glycosidases, second group of enzymes", "setting": "[3]", "result": "inhibited"},
      {"measurement": "stimulation of recombinant glycosidases, third group of enzymes, of their base activity", "setting": "[3]", "result": "up to 400%"}
    ]},
    {"smiles": "OC[C@H]1O[C@H](O[C@H]2[C@H](O)[C@@H](O)[C@H](O)O[C@@H]2CO)[C@H](O)[C@@H](O)[C@@H]1O", "note": "[maltose]", "values": [
      {"measurement": "stimulation of β-D-glucosidase activity", "setting": "[1]", "result": "Neither maltose alone nor glucose alone could stimulate β-D-glucosidase activity"}
    ]},
    {"smiles": "CC(=O)NC1C(Oc2ccc([N+](=O)[O-])cc2)OC(CO)C(O)C1O", "note": "[β-N-acetyl-D-glucosaminide]", "values": [
      {"measurement": "substrate specificity GLY-01", "setting": "GLY-01", "result": "−"},
      {"measurement": "substrate specificity GLY-02", "setting": "GLY-02", "result": "−"},
      {"measurement": "substrate specificity GLY-03", "setting": "GLY-03", "result": "−"},
      {"measurement": "substrate specificity GLY-04", "setting": "GLY-04", "result": "−"},
      {"measurement": "substrate specificity GLY-05", "setting": "GLY-05", "result": "−"},
      {"measurement": "substrate specificity GLY-06", "setting": "GLY-06", "result": "−"},
      {"measurement": "substrate specificity GLY-07", "setting": "GLY-07", "result": "−"},
      {"measurement": "substrate specificity GLY-08", "setting": "GLY-08", "result": "−"},
      {"measurement": "substrate specificity GLY-09", "setting": "GLY-09", "result": "−"},
      {"measurement": "substrate specificity GLY-10", "setting": "GLY-10", "result": "−"}
    ]}
  ]
}
